Experimental data as given in US8039501B2, “Synephrine derivatives useful as anti-inflammatory agents” (Universiteit Gent, priority 2005, dated 2011).

Tested on: pE-selectin-Luc (E-selectin promoter)
Assay: pE-selectin-Luc reporter gene assay in TNF-induced L929sA cells
Assay type: cell-based, mouse
Conditions: 10 microM; TNF-induced; FIG. 1
Excerpt: L929sA mouse fibroblast cells were stably transfected with pE-selectine-Luc (also referred to as pELAM-luc) by the calcium phosphate precipitation procedure described by De Bosscher et al. in Proc. Natl. Acad. Sci. USA (1997) 94, 13504-13509. The co-transfected plasmid pPGKβGeobpA, conferring resistance to G418 and expressing constitutive β-galactosidase enzymatic activity, was used as an internal control. L929sA cells were transiently transfected by the DEAE-dextran transfection method described by De Bosscher et al. (cited supra).
Recombinant murine tumor necrosis factor (TNF) was produced according to a method standard in the art. Dexamethasone (hereinafter abbreviated as DEX) commercially available from Sigma, and 2-(4-acetoxyphenyl)-2-chloro-N-methyl-ethylammonium chloride (hereinafter abbreviated as compound A) was synthesized according to Louw et al. in Biochemical Pharmacology (1997) 53, 189-197). A stock solution was prepared in ethanol (for DEX) or DMSO (for both comparative compound A and for the compound of example 6 according to this invention, i.e. 1-[4-(benzoyloxy)phenyl]-2-[(tert-butoxy-carbonyl)-methylamino]ethyl-1H-imidazole-1-carboxylate), aliquoted and stored at −70° C.
Induction was performed in triplicate for each independent experiment, which was carried out at least twice. Induction with DEX, compound A, and for the compound of example 6 according to this invention at 1 μM, 10 μM or respectively any other indicated concentration were performed at −2 hours for a total of 8 hours, while TNF (2000 IU/ml) was added at time point zero and left on the cells for 6 hours. After induction, cells were lysed with a lysis buffer (commercially available from Tropix, Bedford, Massachussets) and samples were assayed according to the manufacturer's instructions (Promega Biotech).
In order to investigate whether the inhibitory effect of compound A or the compound of example 6 according to this invention is directed at the transcriptional level of NF-κB-driven genes, the NF-κB-dependent physiological promoter construct, pE-selectin-Luc stably integrated into L929sA cells, was tested. […] DEX-mediated and compound A-mediated inhibition of TNF-induced gene expression were used as controls (FIG. 1). In the appended figures, NI stands for non-induced (either in presence of solvent controls like ethanol or DMSO).

Q: Which “Inhibition of the expression of E-selectin” value does the source give for `CNCC(Cl)c1ccc(OC(C)=O)cc1.Cl` (stereo not shown) [CpdA, 2-(4-acetoxyphenyl)-2-chloro-N-methyl-ethylammonium chloride] here?
A: Its value is “inhibit the expression of E-selectin”.
